Test results: US5145990A, “Phosphorous containing dhp enzyme inhibitors” (Merck & Co., Inc., priority 1991, dated 1992)

Target: T1, renal dehydropeptidase I (renal dipeptidase, E.C. 3.4.13.11) (Sus scrofa, UniProt P22412)
T1 construct: solubilized preparation of […] isolated from hog kidneys; from tissue; host or cells: hog kidney
T1 sequence (P22412 17-409): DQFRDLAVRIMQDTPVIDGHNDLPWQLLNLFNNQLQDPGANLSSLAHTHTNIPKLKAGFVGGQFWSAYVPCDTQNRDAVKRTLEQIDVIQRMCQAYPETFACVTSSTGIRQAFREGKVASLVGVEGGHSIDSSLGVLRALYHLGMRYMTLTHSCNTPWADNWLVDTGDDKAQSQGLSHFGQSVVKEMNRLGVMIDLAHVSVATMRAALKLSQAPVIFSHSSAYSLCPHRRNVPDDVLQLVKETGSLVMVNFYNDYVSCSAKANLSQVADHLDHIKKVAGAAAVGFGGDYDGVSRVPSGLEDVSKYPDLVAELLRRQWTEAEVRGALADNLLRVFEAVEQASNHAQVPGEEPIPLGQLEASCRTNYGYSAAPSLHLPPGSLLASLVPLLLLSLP
Experiment: In vitro screen: inhibition of hydrolysis of glycyldehydrophenylalanine (GDP) by solubilized renal dipeptidase
Assay type: biochemical
Details: Table I, structure II; hog kidney enzyme, GDP 0.05 mM, pH 7.1, 37° C., 275 nm
Protocol: Renal dehydropeptidase activity was first described by M. Bergmann and H. Schleich, Z. Physiol. Chem., 205, 65 (1932); see also B. J. Campbell et al., Biochem. Biophys. Acta, 118, 371 (1966) and references therein.
This measured the ability of compounds to inhibit hydrolysis of glycyldehydrophenylalanine (GDP) by a solubilized preparation of […] isolated from hog kidneys. The procedure is as follows: to a 1 ml system containing 50 mM "MOPS" (3-(N-morpholino)-propanesulfonic acid) buffer, pH 7.1 is added 5 mg of lyophilized enzyme, and the test compound at a final concentration of 0.1 mM. After a five minute incubation of 37° C., GDP is added to a final concentration of 0.05 mM. Incubation is continued for 10 minutes, at 37° C. and hydrolysis of GDP is measured by the change in optical density with time at 275 nm. Inhibition of the enzyme is gauged by comparison to a standard run containing no inhibitor and is expressed as the inhibitor binding constant K. This is the concentration of the inhibitor which achieves 50% inhibition of enzyme.

Row | Ki | SMILES
1 | 21 nM | CC(C)/C=C(/CP(=O)(O)C(N)CC1CCCCC1)C(=O)O (centres unmarked)
2 | 2.1 nM | CC(C)/C=C(\CP(=O)(O)C(N)CC1CCCCC1)C(=O)O (centres unmarked)
